Test results reported in PMC8725448 (Journal of Cannabis Research, 2022).
Values joined by “and” are separate entries in the source; they are usually repeats but may differ in a detail not shown here. Equal values may be shown once. Read-outs that look alike come from different tables or passages of the source.

Columns and labels:
control HEK293 cells = experiment: GPR55 negative control pERK experiment; assay type: cell-based, human; conditions: 10 μM; control HEK293 cells without GPR55
Protocol: ERK phosphorylation (pERK) was detected using the AlphaScreen® SureFire® Phospho-ERK1/2 assay (Perkin Elmer; Waltham, USA) as previously described (Anderson et al. [2021b]). Briefly, the human embryonic kidney (HEK) 293 cells stably expressing human GPR55 in L-15 media were plated (110,000/well) into a Corning CellBIND (Corning Inc; Corning, USA) clear, flat-bottomed 96-well plate and incubated 20–24 h at 37°C in ambient CO2. Media was aspirated, 50 μL phenol red-free DMEM/F-12 was added to each well and incubated for 2–3 h at 37°C in a humidified 5% CO2 atmosphere. Compounds (10 μM in phenol red-free DMEM/F-12) were added and incubated for 20 min before media was aspirated and lysis buffer was added. Lysates (5 μL) were incubated with reaction mixture (7 μL) for 3.5 h at room temperature. A CLARIOstar plate reader (BMG Labtech; Offenburg, GER) was used to take fluorescence readings over 740 msec (excitation 680 nm, emission 520–620 nm). Fluorescence readings were normalized to those of 4 μM LPI, the endogenous GPR55 agonist. No effect of LPI (10 μM) is observed in control HEK293 cells (Supplemental Fig. 1). Final DMSO concentrations were ≤ 0.2%. […]
(LPI). Data are expressed as mean ± SEM normalized to 100 nM phorbol 12-myrisate 13-acetate (PMA), […]

[1] = tested on: hyperthermia-induced seizures in Scn1a^+/- mice; conditions: cited from earlier work
[2] = parameters: method as in Anderson et al. 2019b; conditions: CBGA; ref Anderson et al. 2019b; cited from earlier work
human GPR55 = target: T1, human GPR55 (Homo sapiens, UniProt Q9Y2T6); parameters: method as in Anderson et al. 2021a, 2021b and unpublished data; conditions: at therapeutically relevant concentrations; ref Anderson et al. 2021a, 2021b and unpublished data; cited from earlier work
T1 construct: expressed in transfected cells; host or cells: HEK293

CaV3.1 = target: T2, CaV3.1 (Homo sapiens, UniProt O43497); parameters: method as in Anderson et al. 2021a, 2021b and unpublished data; conditions: at therapeutically relevant concentrations; ref Anderson et al. 2021a, 2021b and unpublished data; cited from earlier work
T2 construct: expressed in transfected cells; host or cells: Flp-In T-REx HEK (tetracycline-induced)

[3] = tested on: maximal electroshock (MES) seizure threshold; parameters: method as in Anderson et al. 2021b; conditions: ref Anderson et al. 2021b; cited from earlier work
[4] = ref Anderson et al. 2019b, 2021a, 2021b

T1 sequence (Q9Y2T6 whole entry): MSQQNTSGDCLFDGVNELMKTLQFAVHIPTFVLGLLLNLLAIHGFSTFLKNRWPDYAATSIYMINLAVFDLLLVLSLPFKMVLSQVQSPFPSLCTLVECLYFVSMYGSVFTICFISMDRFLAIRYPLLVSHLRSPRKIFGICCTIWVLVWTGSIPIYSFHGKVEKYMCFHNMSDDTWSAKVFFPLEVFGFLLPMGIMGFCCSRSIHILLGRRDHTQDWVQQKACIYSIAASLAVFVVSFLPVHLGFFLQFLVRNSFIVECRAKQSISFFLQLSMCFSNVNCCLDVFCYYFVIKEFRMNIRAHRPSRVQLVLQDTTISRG
T2 sequence (O43497 whole entry): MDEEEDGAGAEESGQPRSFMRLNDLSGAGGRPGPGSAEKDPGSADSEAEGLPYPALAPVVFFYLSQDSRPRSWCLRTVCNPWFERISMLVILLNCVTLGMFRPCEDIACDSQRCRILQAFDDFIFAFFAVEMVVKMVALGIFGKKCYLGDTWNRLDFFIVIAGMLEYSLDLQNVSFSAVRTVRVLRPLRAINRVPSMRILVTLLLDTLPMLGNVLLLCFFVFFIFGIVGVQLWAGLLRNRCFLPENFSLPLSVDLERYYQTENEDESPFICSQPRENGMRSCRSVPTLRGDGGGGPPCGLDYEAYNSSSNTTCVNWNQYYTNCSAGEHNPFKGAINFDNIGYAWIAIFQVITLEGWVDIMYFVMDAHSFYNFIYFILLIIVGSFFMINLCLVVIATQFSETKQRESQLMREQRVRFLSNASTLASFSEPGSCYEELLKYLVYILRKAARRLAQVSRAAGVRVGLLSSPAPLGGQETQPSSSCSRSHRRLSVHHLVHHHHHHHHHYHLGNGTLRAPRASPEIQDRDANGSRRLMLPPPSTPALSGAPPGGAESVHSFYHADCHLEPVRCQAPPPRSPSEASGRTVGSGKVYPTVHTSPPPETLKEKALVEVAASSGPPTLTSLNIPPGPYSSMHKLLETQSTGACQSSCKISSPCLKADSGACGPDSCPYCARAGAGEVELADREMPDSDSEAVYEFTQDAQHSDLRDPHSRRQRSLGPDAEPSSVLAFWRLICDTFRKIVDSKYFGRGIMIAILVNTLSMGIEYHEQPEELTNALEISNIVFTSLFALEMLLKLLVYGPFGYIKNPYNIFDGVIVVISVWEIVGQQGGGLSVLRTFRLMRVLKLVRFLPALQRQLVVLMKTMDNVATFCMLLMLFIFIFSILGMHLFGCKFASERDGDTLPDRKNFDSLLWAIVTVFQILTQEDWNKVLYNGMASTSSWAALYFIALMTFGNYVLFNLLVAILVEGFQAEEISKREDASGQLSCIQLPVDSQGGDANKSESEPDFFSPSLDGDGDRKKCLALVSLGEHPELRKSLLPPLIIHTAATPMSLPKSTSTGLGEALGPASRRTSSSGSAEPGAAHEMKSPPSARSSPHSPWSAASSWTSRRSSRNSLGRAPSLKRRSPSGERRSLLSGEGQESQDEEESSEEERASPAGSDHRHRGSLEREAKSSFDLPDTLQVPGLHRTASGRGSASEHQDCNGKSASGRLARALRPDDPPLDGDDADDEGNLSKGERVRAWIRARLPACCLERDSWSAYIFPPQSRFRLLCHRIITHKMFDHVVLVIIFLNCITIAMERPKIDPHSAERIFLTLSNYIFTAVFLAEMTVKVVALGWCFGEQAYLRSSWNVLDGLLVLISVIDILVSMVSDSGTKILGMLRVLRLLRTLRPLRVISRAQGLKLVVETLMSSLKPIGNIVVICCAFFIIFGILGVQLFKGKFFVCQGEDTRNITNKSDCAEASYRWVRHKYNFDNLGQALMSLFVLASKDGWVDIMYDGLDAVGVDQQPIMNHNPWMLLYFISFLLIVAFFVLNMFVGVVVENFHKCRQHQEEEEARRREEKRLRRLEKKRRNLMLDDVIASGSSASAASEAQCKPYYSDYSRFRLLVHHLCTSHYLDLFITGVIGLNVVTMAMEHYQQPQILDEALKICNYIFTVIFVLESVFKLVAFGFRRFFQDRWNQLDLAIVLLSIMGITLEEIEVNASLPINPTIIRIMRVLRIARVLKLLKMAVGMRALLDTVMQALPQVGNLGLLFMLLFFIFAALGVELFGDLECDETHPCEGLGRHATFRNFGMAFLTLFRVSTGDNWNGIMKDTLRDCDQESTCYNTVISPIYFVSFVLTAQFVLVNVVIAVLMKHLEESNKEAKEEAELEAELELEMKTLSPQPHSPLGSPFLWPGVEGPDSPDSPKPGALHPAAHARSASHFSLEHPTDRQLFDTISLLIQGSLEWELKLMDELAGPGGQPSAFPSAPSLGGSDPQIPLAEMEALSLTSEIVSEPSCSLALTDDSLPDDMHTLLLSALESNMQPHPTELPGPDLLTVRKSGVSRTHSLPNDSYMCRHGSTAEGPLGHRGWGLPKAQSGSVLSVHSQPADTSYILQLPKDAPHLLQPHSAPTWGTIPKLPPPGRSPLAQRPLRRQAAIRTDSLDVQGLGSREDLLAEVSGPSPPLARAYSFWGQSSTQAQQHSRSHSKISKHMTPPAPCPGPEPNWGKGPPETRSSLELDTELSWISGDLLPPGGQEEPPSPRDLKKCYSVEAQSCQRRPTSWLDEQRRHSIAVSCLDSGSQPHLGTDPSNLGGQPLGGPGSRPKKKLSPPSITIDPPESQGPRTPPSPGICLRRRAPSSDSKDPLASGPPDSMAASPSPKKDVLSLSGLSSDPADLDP

Lysophosphatidylinositol [LPI]
effect on ERK phosphorylation (control HEK293 cells): No effect

CCCc1cc(O)c(C/C=C(\C)CCC=C(C)C)c(O)c1C(=O)O [CBGVA]
efficacy against hyperthermia-induced seizures [1, 4]: anticonvulsant

CCCCCc1cc2c(c(O)c1C(=O)O)C=CC(C)(CCC=C(C)C)O2 (centres unmarked) [CBCA]
efficacy against hyperthermia-induced seizures [1, 4]: anticonvulsant

CCCCCc1cc(O)c(C/C=C(\C)CCC=C(C)C)c(O)c1 [CBG, cannabigerol]
efficacy against hyperthermia-induced seizures [1, 4]: not effective

C=C(C)[C@@H]1CCC(C)=C[C@H]1c1c(O)cc(CCCCC)c(C(=O)O)c1O [CBDA, cannabidiolic acid]
efficacy against hyperthermia-induced seizures [1, 4]: anticonvulsant

C=C(C)[C@@H]1CCC(C)=C[C@H]1c1c(O)cc(CCC)c(C(=O)O)c1O [CBDVA]
efficacy against hyperthermia-induced seizures [1, 4]: anticonvulsant

CCCCCc1cc(O)c(C/C=C(\C)CCC=C(C)C)c(O)c1C(=O)O [CBGA, Cannabigerolic acid]
brain penetration / brain uptake [2]: 2% and ~ 2%
activity at GPR55 (human GPR55): inhibition
activity at Cav3.1 channels (CaV3.1): inhibition
anticonvulsant properties in MES seizure threshold test [3]: anticonvulsant properties
efficacy against hyperthermia-induced seizures ([1]; 30 mg/kg, ref Anderson et al. 2021b): effective
increase of threshold temperature ([1]; 100 mg/kg, ref Anderson et al. 2021b): ~1 °C
efficacy against hyperthermia-induced seizures [1, 4]: anticonvulsant properties

C=C(C)[C@@H]1CCC(C)=C[C@H]1c1c(O)cc(CCCCC)cc1O [CBD, cannabidiol]
increase of temperature threshold ([1]; 100 mg/kg, ref Anderson et al. 2019a, 2020, Kaplan et al. 2017): approximately 0.5 °C
